ChEMBL document CHEMBL1201862, “PubChem BioAssay data set” (2004)
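A five-concentration, 48-hour dose response in 96-well plates underlies each endpoint, interpolated linearly between surrounding concentrations. At the GI50, growth is halved.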 Activity calls are given as the source filed them. Rule as the data show it: active = GI50 up to about 1.1 µM and inactive = higher.

Assays:
Test in all cases: inhibition of tumour cell growth, NCI panel, 48 h
LOX IMVI = system: LOX IMVI
SK-MEL-2 = system: SK-MEL-2
SW-620 = system: SW-620
MDA-MB-231 = system: MDA-MB-231
RPMI-8226 = system: RPMI-8226
M14 = system: M14
OVCAR-8 = system: OVCAR-8
EKVX = system: EKVX
SR = system: SR
SK-MEL-28 = system: SK-MEL-28
SK-OV-3 = system: SK-OV-3
SF-295 = system: SF-295
SF-268 = system: SF-268
HCT-15 = system: HCT-15
RXF 393 = system: RXF 393
BT-549 = system: BT-549
ACHN = system: ACHN
NCI-H460 = system: NCI-H460
HOP-62 = system: HOP-62
OVCAR-5 = system: OVCAR-5

Measured: GI50

Nc1ncnc2c1ncn2[C@@H]1O[C@H](COC(c2ccccc2)(c2ccccc2)c2ccccc2)[C@@H](OC(=S)Oc2ccccc2)[C@@H]1F
3.37 µM: HCT-15
inactive: LOX IMVI 3.88 µM | SK-MEL-2 5.47 µM | SW-620 4.47 µM | MDA-MB-231 10.7 µM | RPMI-8226 3.49 µM | M14 5.53 µM | OVCAR-8 3.37 µM | EKVX 12.3 µM | SR 2.72 µM | SK-MEL-28 15.2 µM | SK-OV-3 14.1 µM | SF-295 7.98 µM | SF-268 3.66 µM | RXF 393 2.82 µM | BT-549 4.95 µM | ACHN 10.7 µM | NCI-H460 13.1 µM | HOP-62 15.5 µM | OVCAR-5 19.1 µM

Cn1nc(S(N)(=O)=O)s/c1=N/C(N)=S
inactive: LOX IMVI > 100 µM | SK-MEL-2 > 100 µM | SW-620 > 100 µM | MDA-MB-231 > 100 µM | RPMI-8226 > 100 µM | M14 > 100 µM | OVCAR-8 > 100 µM | EKVX > 100 µM | SR > 100 µM | SK-MEL-28 > 100 µM | SK-OV-3 > 100 µM | SF-295 > 100 µM | SF-268 > 100 µM | RXF 393 > 100 µM | BT-549 > 100 µM | ACHN > 100 µM | NCI-H460 > 100 µM | HOP-62 > 100 µM | OVCAR-5 > 100 µM
> 100 µM: HCT-15

COc1cc2c(cc1OCCCN1CCOCC1)N=C[C@@H]1CCCN1C2=O
inactive: LOX IMVI 4.48 µM | SK-MEL-2 11.2 µM | SW-620 3.33 µM | MDA-MB-231 11 µM | RPMI-8226 2.21 µM | M14 11 µM | OVCAR-8 24.7 µM | EKVX 19.4 µM | SR 3.57 µM | SK-MEL-28 12.6 µM | SK-OV-3 10.8 µM | SF-295 9.59 µM | SF-268 7.53 µM | RXF 393 2.75 µM | BT-549 6.53 µM | ACHN 14 µM | NCI-H460 24.5 µM | HOP-62 12.5 µM | OVCAR-5 15.5 µM
24.9 µM: HCT-15

NCCC1([N+](=O)[O-])CCNCC1
inactive: LOX IMVI > 100 µM | SK-MEL-2 > 100 µM | SW-620 > 100 µM | MDA-MB-231 > 100 µM | RPMI-8226 > 100 µM | M14 > 100 µM | OVCAR-8 > 100 µM | EKVX > 100 µM | SR > 100 µM | SK-MEL-28 > 26.8 µM | SK-OV-3 > 100 µM | SF-295 > 100 µM | SF-268 > 100 µM | RXF 393 > 100 µM | BT-549 > 100 µM | ACHN > 100 µM | NCI-H460 > 100 µM | HOP-62 > 100 µM | OVCAR-5 > 100 µM
> 100 µM: HCT-15

C/C(CC(O)(C(F)(F)F)C(F)(F)F)=N\O
inactive: LOX IMVI > 10 µM | SK-MEL-2 > 10 µM | SW-620 > 10 µM | MDA-MB-231 > 10 µM | RPMI-8226 > 10 µM | M14 > 10 µM | OVCAR-8 > 10 µM | EKVX > 10 µM | SR > 10 µM | SK-MEL-28 > 10 µM | SK-OV-3 > 10 µM | SF-295 > 10 µM | SF-268 > 10 µM | RXF 393 > 10 µM | BT-549 > 10 µM | ACHN > 10 µM | NCI-H460 > 10 µM | HOP-62 > 10 µM | OVCAR-5 > 10 µM
> 10 µM: HCT-15

Nc1nncc2[nH]cnc12
44.4 µM: HCT-15
inactive: LOX IMVI 25.5 µM | SK-MEL-2 > 100 µM | SW-620 31 µM | MDA-MB-231 99.5 µM | RPMI-8226 14.4 µM | M14 35.2 µM | OVCAR-8 22.5 µM | EKVX 52.1 µM | SR > 100 µM | SK-MEL-28 > 100 µM | SK-OV-3 41.5 µM | SF-295 42.8 µM | SF-268 50.5 µM | RXF 393 > 100 µM | BT-549 26.9 µM | ACHN 50.1 µM | NCI-H460 90.6 µM | HOP-62 > 100 µM | OVCAR-5 49.3 µM

O=C1/C(=C/c2ccccc2)CN(C(=O)CCN2CCCC2)C/C1=C\c1ccccc1
inactive: SK-MEL-2 2.77 µM | MDA-MB-231 1.51 µM | M14 1.74 µM | OVCAR-8 1.53 µM | EKVX 2.49 µM | SK-MEL-28 1.62 µM | SK-OV-3 8.26 µM | SF-268 1.72 µM | RXF 393 2.33 µM | BT-549 1.56 µM | ACHN 1.98 µM | NCI-H460 1.77 µM | HOP-62 7.31 µM | OVCAR-5 3.16 µM
1.73 µM: HCT-15
active: LOX IMVI 0.687 µM | SW-620 0.23 µM | RPMI-8226 0.253 µM | SR 0.219 µM | SF-295 1.09 µM

CN(C)CCCNc1ncnc2c1ncn2C1OC(CO)C(O)C1O (stereo not given)
> 100 µM: HCT-15
inactive: LOX IMVI > 100 µM | SK-MEL-2 > 100 µM | SW-620 > 100 µM | MDA-MB-231 > 100 µM | RPMI-8226 > 100 µM | M14 > 100 µM | OVCAR-8 > 100 µM | EKVX > 100 µM | SR > 100 µM | SK-MEL-28 > 100 µM | SK-OV-3 > 100 µM | SF-295 > 100 µM | SF-268 > 100 µM | RXF 393 > 100 µM | BT-549 92.7 µM | ACHN > 100 µM | NCI-H460 > 100 µM | HOP-62 > 100 µM | OVCAR-5 > 100 µM

COc1cc2c(cc1C)NC(=O)/C2=C/c1c(Cl)[nH]c2cc(C)c(OC)cc12
inactive: LOX IMVI 2.42 µM | SK-MEL-2 8.38 µM | SW-620 3.64 µM | MDA-MB-231 13.2 µM | RPMI-8226 3.98 µM | M14 2.15 µM | OVCAR-8 5.98 µM | EKVX 8.04 µM | SK-MEL-28 8.13 µM | SK-OV-3 1.3 µM | SF-295 1.21 µM | SF-268 2.79 µM | RXF 393 6.81 µM | BT-549 1.36 µM | ACHN 2.25 µM | HOP-62 10.1 µM | OVCAR-5 7.78 µM
active: SR 0.428 µM | NCI-H460 0.774 µM
3.72 µM: HCT-15

CCC(=S)N(C)O
inactive: LOX IMVI 10.6 µM | SK-MEL-2 29.4 µM | SW-620 4.09 µM | MDA-MB-231 42.4 µM | M14 17.8 µM | OVCAR-8 40.3 µM | EKVX 16.5 µM | SK-MEL-28 57.4 µM | SK-OV-3 76.9 µM | SF-295 34.2 µM | SF-268 47.4 µM | RXF 393 25.9 µM | BT-549 > 100 µM | ACHN 35.2 µM | NCI-H460 10.1 µM | HOP-62 43.5 µM | OVCAR-5 45.1 µM
17 µM: HCT-15
active: RPMI-8226 0.828 µM | SR 1.02 µM

O=C(C/N=C(\CN(c1ccccc1)c1ccccc1)Oc1ccc(Cl)cc1Cl)n1ccnc1
inactive: LOX IMVI > 100 µM | SK-MEL-2 > 100 µM | SW-620 > 100 µM | MDA-MB-231 > 100 µM | RPMI-8226 > 100 µM | M14 > 100 µM | OVCAR-8 > 100 µM | EKVX > 100 µM | SR > 100 µM | SK-MEL-28 > 100 µM | SK-OV-3 > 100 µM | SF-295 > 100 µM | SF-268 > 100 µM | RXF 393 > 100 µM | BT-549 > 100 µM | ACHN > 100 µM | NCI-H460 > 100 µM | HOP-62 > 100 µM | OVCAR-5 > 100 µM
> 100 µM: HCT-15

Nc1nc(N)c(-c2cccc(C(F)(F)F)c2)c(Cc2cccc(C(F)(F)F)c2)n1
inactive: LOX IMVI 1.35 µM | SK-MEL-2 7.71 µM | SW-620 7.33 µM | MDA-MB-231 13.1 µM | RPMI-8226 6.73 µM | M14 1.22 µM | OVCAR-8 8.49 µM | EKVX 5.92 µM | SR 1.25 µM | SK-MEL-28 11.4 µM | SK-OV-3 8.97 µM | SF-295 1.52 µM | SF-268 5.55 µM | RXF 393 3.34 µM | BT-549 10.2 µM | ACHN 2.65 µM | HOP-62 6.05 µM | OVCAR-5 3.48 µM
1.44 µM: HCT-15
active: NCI-H460 0.604 µM
